{"source": "paper PMC8765437", "about": "“GSK3640254 Is a Novel HIV-1 Maturation Inhibitor with an Optimized Virology Profile” (Antimicrobial Agents and Chemotherapy, 2022)", "test_system": "NLRepRlucP373S viruses containing Gag SDMs or gag/pr genes from clinical isolates", "experiment": "Multiple-cycle replication assay, NLRepRluc reporter viruses in MT-2 cells, luciferase endpoint", "type": "cell-based, HIV-1", "source_text": "Multiple-cycle assays using recombinant viruses or clinical isolates were used to assess MI antiviral activity as described previously ([10]). pNLRepRlucP373S (the P373S change is in the Gag gene and converts an outlier polymorphism in the NL4-3 gene to the prevalent amino acid in the population) plasmids containing SDMs in Gag or gag/pr regions from clinical isolates were transfected into HEK 293T cells, and the supernatant containing recombinant virus was harvested after 4 to 5 days. Virus was used to infect MT-2 cells in the presence of a 3-fold serially diluted compound at a final dimethyl sulfoxide (DMSO) concentration of 1%. The inocula of the reporter viruses were determined based on the luciferase activity detected on day 4 postinfection. The MOI (ratio of infectious virions to target cells) of reporter-free laboratory strains and clinical isolates was 0.005, as derived from a tissue culture infectious dose study. Clinical isolates or reporter-free viruses were examined in the reporter CEM-NKR-CCR5-Luc cells or PBMCs at MOIs ranging from 0.005 to 0.01. Each infection started with a drug-free preincubation of the cell-virus mixtures, performed at 37°C and 5% CO2 for either 1 h at 2 times the final cell density (reporter viruses) or 1 h (reporter-free laboratory strains) or 3 h (clinical isolates) using cell pellets in 0.5 mL of medium. After preincubation, cell-virus mixtures were added to compound-containing 96-well plates for a final cell density of either 10,000 (MT-2 cells for reporter viruses), 20,000 (MT-2 and PM1 cells for reporter-free laboratory strains), 200,000 (PBMCs for clinical isolates), or 500,000 (CEM-NKR-CCR5-Luc for reporter-free laboratory strains) cells per well. The CEM-NKR-CCR5-Luc cell assay was performed in the presence of Polybrene (10 μg/mL). Virus growth was determined on days 4 to 5 postinfection for reporter variants or days 5 to 11 for the other viruses. The reporter viruses were detected by a luciferase assay according to manufacturer protocols (Brite-Glo luciferase kit [Promega] for CEM-NKR-CCR5-Luc cells and Dual-Luciferase Reporter 1000 assay system [Promega] for the other cells), and luminescence was detected on a Wallac Trilux. The growth of clinical isolates in PBMCs was quantitated by reverse transcriptase activity in a 96-well scintillation proximity assay (SPA). Twenty microliters of culture supernatants was mixed with 40 μL of reaction cocktail (62.5 mM Tris-HCl [pH 7.8], 100 mM KCl, 0.0625% NP-40, 2.5 mM dithiothreitol [DTT], 6.25 mM MgCl2, 1 mM EGTA, 6.25 μg/mL of poly rA, 2.5 μg/mL of streptavidin SPA beads prebound with biotinylated-dT12-18, and 1 μCi of [^3H]TTP). Mixtures were incubated at 37°C for ∼3 h and quenched with 100 μl of 0.25 M EDTA per well. Luminescence was detected on a Wallac Trilux programmed for tritium counting with SPA beads in opaque plates. The growth of the reporter-free laboratory M-tropic strains and clinical isolates was monitored by a p24 enzyme-linked immunosorbent assay (ELISA; PerkinElmer Life Sciences, Waltham, MA) performed on culture supernatants. […] A 1:1,000 dilution of cell supernatant in PBS was generally observed to fall in the dynamic range of the endpoint signal.\nMaximal percent inhibition values were calculated as MPI = 100 – (mean signals at the 2 highest concentrations of compound/mean signal of 2 no-drug control wells) × 100.", "key": {"[1]": {"conditions": "Human immunodeficiency virus 1, MT2, ΔV370, 10% FBS"}}, "note": "Like-named read-outs stand apart in the source and are kept apart here.", "data": [{"compound": "C=C(C)[C@@H]1CC[C@]2(NCCN3CCS(=O)(=O)CC3)CC[C@]3(C)[C@H](CC[C@@H]4[C@@]5(C)CC=C(C6=CC[C@@](CF)(C(=O)O)CC6)C(C)(C)[C@@H]5CC[C@]43C)[C@@H]12", "note": "[GSK’254]", "values": [{"measurement": "EC90", "setting": "Human immunodeficiency virus 1, MT2, read-out: PBA EC90, subtype B gag/pr 93US155 (V370T)", "result": 14, "unit": "nM"}, {"measurement": "EC90", "setting": "Human immunodeficiency virus 1, MT2, read-out: PBA EC90, subtype B gag/pr 411-1-C (Wild-type)", "result": 7, "unit": "nM"}, {"measurement": "EC90", "setting": "Human immunodeficiency virus 1, MT2, read-out: PBA EC90, subtype B gag/pr 220162 (Wild-type)", "result": 40, "unit": "nM"}, {"measurement": "EC90", "setting": "Human immunodeficiency virus 1, MT2, read-out: PBA EC90, subtype B gag/pr 400024 (V370M)", "result": 10, "unit": "nM"}, {"measurement": "EC90", "setting": "Human immunodeficiency virus 1, MT2, read-out: PBA EC90, subtype B gag/pr 400051 (V370A)", "result": 21, "unit": "nM"}, {"measurement": "EC90", "setting": "Human immunodeficiency virus 1, MT2, read-out: PBA EC90, subtype B gag/pr 1000038 (V362I/V370A)", "result": 43, "unit": "nM"}, {"measurement": "EC90", "setting": "Human immunodeficiency virus 1, MT2, read-out: PBA EC90, subtype B gag/pr 1000156 (V362I)", "result": 63, "unit": "nM"}, {"measurement": "EC90", "setting": "Human immunodeficiency virus 1, MT2, read-out: PBA EC90, subtype B gag/pr 1900120 (V370M)", "result": 11, "unit": "nM"}, {"measurement": "EC90", "setting": "Human immunodeficiency virus 1, MT2, read-out: PBA EC90, subtype B gag/pr 1900140 (V362I)", "result": 47, "unit": "nM"}, {"measurement": "EC90", "setting": "Human immunodeficiency virus 1, MT2, read-out: PBA EC90, subtype C gag/pr 93MW690", "result": 17, "unit": "nM"}, {"measurement": "EC90", "setting": "Human immunodeficiency virus 1, MT2, read-out: PBA EC90, subtype C gag/pr 97ZA003", "result": 24, "unit": "nM"}, {"measurement": "EC90", "setting": "Human immunodeficiency virus 1, MT2, read-out: PBA EC90, subtype C gag/pr 98CN009", "result": 27, "unit": "nM"}, {"measurement": "EC90", "setting": "Human immunodeficiency virus 1, MT2, read-out: PBA EC90, subtype C gag/pr 98IN026", "result": 16, "unit": "nM"}, {"measurement": "EC90", "setting": "Human immunodeficiency virus 1, MT2, read-out: PBA EC90, subtype C gag/pr 11657-3", "result": 37, "unit": "nM"}, {"measurement": "EC90", "setting": "Human immunodeficiency virus 1, MT2, read-out: PBA EC90, subtype C gag/pr 20635-4", "result": 40, "unit": "nM"}, {"measurement": "EC90", "setting": "Human immunodeficiency virus 1, MT2, read-out: PBA EC90, subtype C gag/pr 1700141", "result": 19, "unit": "nM"}, {"measurement": "EC90", "setting": "Human immunodeficiency virus 1, MT2, read-out: PBA EC90, subtype C gag/pr 1900543", "result": 24, "unit": "nM"}, {"measurement": "EC90", "setting": "Human immunodeficiency virus 1, MT2, read-out: mean PBA EC90, 44-member library of genotyped chimeric and SDM viruses, protein-binding adjusted", "result": 33, "unit": "nM"}, {"measurement": "EC50", "setting": "Human immunodeficiency virus 1, MT2, subtype B gag/pr 4NRR (Wild-type)", "result": 1, "unit": "nM"}, {"measurement": "EC50", "setting": "Human immunodeficiency virus 1, MT2, subtype B gag/pr 28-MDR (Wild-type)", "result": 1, "unit": "nM"}, {"measurement": "EC50", "setting": "Human immunodeficiency virus 1, MT2, subtype B gag/pr 92BR014 (V370M)", "result": 1, "unit": "nM"}, {"measurement": "EC50", "setting": "Human immunodeficiency virus 1, MT2, subtype B gag/pr 92BR018 (V, QAΔ)", "result": 1, "unit": "nM"}, {"measurement": "EC50", "setting": "Human immunodeficiency virus 1, MT2, subtype B gag/pr 92TH014 (V362I)", "result": 1, "unit": "nM"}, {"measurement": "EC50", "setting": "Human immunodeficiency virus 1, MT2, subtype B gag/pr 92TH026 (V362I)", "result": 4, "unit": "nM"}, {"measurement": "EC50", "setting": "Human immunodeficiency virus 1, MT2, subtype B gag/pr 92US072 (V362I)", "result": 1, "unit": "nM"}, {"measurement": "EC50", "setting": "Human immunodeficiency virus 1, MT2, subtype B gag/pr 92US729 (Wild-type)", "result": 1, "unit": "nM"}, {"measurement": "EC50", "setting": "Human immunodeficiency virus 1, MT2, subtype B gag/pr 93BR008 (V362I)", "result": 2, "unit": "nM"}, {"measurement": "EC50", "setting": "Human immunodeficiency virus 1, MT2, subtype B gag/pr 93BR009 (V370M)", "result": 2, "unit": "nM"}, {"measurement": "EC50", "setting": "Human immunodeficiency virus 1, MT2, subtype B gag/pr 93BR017 (V, QAΔ)", "result": 2, "unit": "nM"}, {"measurement": "EC50", "setting": "Human immunodeficiency virus 1, MT2, subtype B gag/pr 93BR022 (V, QAΔ)", "result": 3, "unit": "nM"}, {"measurement": "EC50", "setting": "Human immunodeficiency virus 1, MT2, subtype B gag/pr 93TH0647 (V362I)", "result": 2, "unit": "nM"}, {"measurement": "EC50", "setting": "Human immunodeficiency virus 1, MT2, subtype B gag/pr 93US141 (V362I)", "result": 2, "unit": "nM"}, {"measurement": "EC50", "setting": "Human immunodeficiency virus 1, MT2, subtype B gag/pr 93US155 (V370T)", "result": 1, "unit": "nM"}, {"measurement": "EC50", "setting": "Human immunodeficiency virus 1, MT2, subtype B gag/pr 411-1-C (Wild-type)", "result": 0.5, "unit": "nM"}, {"measurement": "EC50", "setting": "Human immunodeficiency virus 1, MT2, subtype B gag/pr 220162 (Wild-type)", "result": 2, "unit": "nM"}, {"measurement": "EC50", "setting": "Human immunodeficiency virus 1, MT2, subtype B gag/pr 400024 (V370M)", "result": 1, "unit": "nM"}, {"measurement": "EC50", "setting": "Human immunodeficiency virus 1, MT2, subtype B gag/pr 400051 (V370A)", "result": 1, "unit": "nM"}, {"measurement": "EC50", "setting": "Human immunodeficiency virus 1, MT2, subtype B gag/pr 1000038 (V362I/V370A)", "result": 3, "unit": "nM"}, {"measurement": "EC50", "setting": "Human immunodeficiency virus 1, MT2, subtype B gag/pr 1000156 (V362I)", "result": 4, "unit": "nM"}, {"measurement": "EC50", "setting": "Human immunodeficiency virus 1, MT2, subtype B gag/pr 1900120 (V370M)", "result": 1, "unit": "nM"}, {"measurement": "EC50", "setting": "Human immunodeficiency virus 1, MT2, subtype B gag/pr 1900140 (V362I)", "result": 1, "unit": "nM"}, {"measurement": "EC50", "setting": "Human immunodeficiency virus 1, MT2, subtype C gag/pr 93MW690", "result": 1, "unit": "nM"}, {"measurement": "EC50", "setting": "Human immunodeficiency virus 1, MT2, subtype C gag/pr 97ZA003", "result": 1, "unit": "nM"}, {"measurement": "EC50", "setting": "Human immunodeficiency virus 1, MT2, subtype C gag/pr 98CN009", "result": 1, "unit": "nM"}, {"measurement": "EC50", "setting": "Human immunodeficiency virus 1, MT2, subtype C gag/pr 98IN026", "result": 1, "unit": "nM"}, {"measurement": "EC50", "setting": "Human immunodeficiency virus 1, MT2, subtype C gag/pr 10215-6", "result": 1, "unit": "nM"}, {"measurement": "EC50", "setting": "Human immunodeficiency virus 1, MT2, subtype C gag/pr 11657-3", "result": 2, "unit": "nM"}, {"measurement": "EC50", "setting": "Human immunodeficiency virus 1, MT2, subtype C gag/pr 20635-4", "result": 1, "unit": "nM"}, {"measurement": "EC50", "setting": "Human immunodeficiency virus 1, MT2, subtype C gag/pr 20706-3", "result": 1, "unit": "nM"}, {"measurement": "EC50", "setting": "Human immunodeficiency virus 1, MT2, subtype C gag/pr 1300495", "result": 1, "unit": "nM"}, {"measurement": "EC50", "setting": "Human immunodeficiency virus 1, MT2, subtype C gag/pr 1700141", "result": 2, "unit": "nM"}, {"measurement": "EC50", "setting": "Human immunodeficiency virus 1, MT2, subtype C gag/pr 1900543", "result": 1, "unit": "nM"}, {"measurement": "EC50", "setting": "[1]", "result": 4.4, "unit": "nM"}, {"measurement": "EC90", "setting": "[1]", "result": 7.8, "unit": "nM"}, {"measurement": "MPI", "setting": "SDM A326T/V362I/V370A", "result": 69, "unit": "%"}, {"measurement": "MPI", "setting": "SDM A364V", "result": 70, "unit": "%"}, {"measurement": "MPI", "setting": "SDM R361K/V362I/L363M", "result": 91, "unit": "%"}, {"measurement": "MPI", "setting": "SDM T332S/V362I/prR41G", "result": 97, "unit": "%"}, {"measurement": "MPI", "setting": "SDM V362I/V370A", "result": 91, "unit": "%"}, {"measurement": "MPI", "setting": "SDM V370A", "result": 97, "unit": "%"}, {"measurement": "MPI", "setting": "SDM Wild type", "result": 98, "unit": "%"}, {"measurement": "MPI", "setting": "SDM ΔV370", "result": 96, "unit": "%"}]}]}
